# Results: ChEMBL document CHEMBL3885861, “Open TG-GATES”
# Species on record: Rattus norvegicus
# Test: Open TG-GATES - Regimen: Single
# Format: toxicity, organism-based, Sprague-Dawley
# Set-up: regimen Single, gender Male, age 6 weeks
# Conditions: in vivo, iv, route intravenous injection; for K / LDH / Na / PL / RALB / TBIL / TC / TG / TP / gamma-GTP / A/G / ALP / ALT / AST / BUN / CRE / Ca / Cl / DBIL / GLC / IP: tissue Plasma; for APTT / Bas / Eos / Fbg / Hb / Ht / Lym / MCH / MCHC / MCV / Mono / Neu / PT / Plat / RBC / Ret / WBC: tissue Blood; for KIDNEY_L / KIDNEY_R / KIDNEY_TOTAL: tissue Kidney; for LIVER: tissue Liver
# [1] = 3 mg/kg, 3 h, dose level Middle
# [2] = 3 mg/kg, 6 h, dose level Middle
# [3] = 3 mg/kg, 9 h, dose level Middle
# [4] = 3 mg/kg, 24 h, dose level Middle
smiles,measurement,setting,value
C[C@@H]1C[C@@H]([C@H](O)CC2CC(=O)NC(=O)C2)C(=O)[C@@H](C)C1 [CYCLOHEXIMIDE],K,"1 mg/kg, 24 h, dose level Low",4.4 meq/L
same,LDH,"1 mg/kg, 24 h, dose level Low",149.2 IU/L
same,Na,"1 mg/kg, 24 h, dose level Low",139.8 meq/L
same,PL,"1 mg/kg, 24 h, dose level Low",110.4 mg/dL
same,RALB,"1 mg/kg, 24 h, dose level Low",2.6 g/dL
same,TBIL,"1 mg/kg, 24 h, dose level Low",0.028 mg/dL
same,TC,"1 mg/kg, 24 h, dose level Low",51.4 mg/dL
same,TG,"1 mg/kg, 24 h, dose level Low",169.6 mg/dL
same,TP,"1 mg/kg, 24 h, dose level Low",4.6 g/dL
same,gamma-GTP,"1 mg/kg, 24 h, dose level Low",1.6 IU/L
same,TERMINAL_BW,[1],221.6 g
same,APTT,[1],22.4 s
same,Bas,[1],0%
same,Eos,[1],0.6%
same,Fbg,[1],296.6 mg/dL
same,Hb,[1],13.7 g/dL
same,Ht,[1],41.1%
same,Lym,[1],73.2%
same,MCH,[1],21.6 pg
same,MCHC,[1],33.4%
same,MCV,[1],64.6 fL
same,Mono,[1],0.8%
same,Neu,[1],24.8%
same,PT,[1],17.4 s
same,Plat,[1],132.2 x10_4/uL
same,RBC,[1],636.8 x10_4/ul
same,Ret,[1],9.2%
same,WBC,[1],217.3 x10_2/uL
same,KIDNEY_L,[1],1 g
same,KIDNEY_R,[1],1 g
same,KIDNEY_TOTAL,[1],2 g
same,LIVER,[1],9.6 g
same,A/G,[1],1.3
same,ALP,[1],1376.2 IU/L
same,ALT,[1],58 IU/L
same,AST,[1],140.8 IU/L
same,BUN,[1],32.6 mg/dL
same,CRE,[1],0.1 mg/dL
same,Ca,[1],9.8 mg/dL
same,Cl,[1],109.4 meq/L
same,DBIL,[1],0.004 mg/dL
same,GLC,[1],170.4 mg/dL
same,IP,[1],9.8 mg/dL
same,K,[1],4.7 meq/L
same,LDH,[1],364.6 IU/L
same,Na,[1],142.2 meq/L
same,PL,[1],80 mg/dL
same,RALB,[1],2.8 g/dL
same,TBIL,[1],0.018 mg/dL
same,TC,[1],59.4 mg/dL
same,TG,[1],52.4 mg/dL
same,TP,[1],5.1 g/dL
same,gamma-GTP,[1],2 IU/L
same,TERMINAL_BW,[2],221.4 g
same,APTT,[2],25.3 s
same,Bas,[2],0%
same,Eos,[2],0.4%
same,Fbg,[2],276 mg/dL
same,Hb,[2],14.1 g/dL
same,Ht,[2],42.1%
same,Lym,[2],60.4%
same,MCH,[2],21.2 pg
same,MCHC,[2],33.6%
same,MCV,[2],63.1 fL
same,Mono,[2],1%
same,Neu,[2],38%
same,PT,[2],21.1 s
same,Plat,[2],123.7 x10_4/uL
same,RBC,[2],668 x10_4/ul
same,Ret,[2],8.3%
same,WBC,[2],191.1 x10_2/uL
same,KIDNEY_L,[2],1 g
same,KIDNEY_R,[2],1 g
same,KIDNEY_TOTAL,[2],2 g
same,LIVER,[2],8.6 g
same,A/G,[2],1.4
same,ALP,[2],1008.6 IU/L
same,ALT,[2],63 IU/L
same,AST,[2],134.2 IU/L
same,BUN,[2],29.2 mg/dL
same,CRE,[2],0.1 mg/dL
same,Ca,[2],7.2 mg/dL
same,Cl,[2],104.2 meq/L
same,DBIL,[2],0.006 mg/dL
same,GLC,[2],139.6 mg/dL
same,IP,[2],11.6 mg/dL
same,K,[2],4.2 meq/L
same,LDH,[2],232.2 IU/L
same,Na,[2],138.2 meq/L
same,PL,[2],62.8 mg/dL
same,RALB,[2],2.8 g/dL
same,TBIL,[2],0.014 mg/dL
same,TC,[2],39.6 mg/dL
same,TG,[2],66.4 mg/dL
same,TP,[2],4.9 g/dL
same,gamma-GTP,[2],1.8 IU/L
same,TERMINAL_BW,[3],215.9 g
same,APTT,[3],27.9 s
same,Bas,[3],0%
same,Eos,[3],0.6%
same,Fbg,[3],255.2 mg/dL
same,Hb,[3],13.6 g/dL
same,Ht,[3],41%
same,Lym,[3],56.4%
same,MCH,[3],21.1 pg
same,MCHC,[3],33.1%
same,MCV,[3],63.7 fL
same,Mono,[3],1.2%
same,Neu,[3],41.8%
same,PT,[3],22.1 s
same,Plat,[3],117.3 x10_4/uL
same,RBC,[3],643 x10_4/ul
same,Ret,[3],7.8%
same,WBC,[3],199.4 x10_2/uL
same,KIDNEY_L,[3],1 g
same,KIDNEY_R,[3],1 g
same,KIDNEY_TOTAL,[3],1.9 g
same,LIVER,[3],8.6 g
same,A/G,[3],1.5
same,ALP,[3],1011.2 IU/L
same,ALT,[3],51.4 IU/L
same,AST,[3],111 IU/L
same,BUN,[3],20.8 mg/dL
same,CRE,[3],0.1 mg/dL
same,Ca,[3],8 mg/dL
same,Cl,[3],105.6 meq/L
same,DBIL,[3],0.012 mg/dL
same,GLC,[3],151.6 mg/dL
same,IP,[3],8.9 mg/dL
same,K,[3],3.8 meq/L
same,LDH,[3],189.4 IU/L
same,Na,[3],139.4 meq/L
same,PL,[3],75.8 mg/dL
same,RALB,[3],2.8 g/dL
same,TBIL,[3],0.012 mg/dL
same,TC,[3],47.2 mg/dL
same,TG,[3],70.2 mg/dL
same,TP,[3],4.9 g/dL
same,gamma-GTP,[3],1 IU/L
same,TERMINAL_BW,[4],220.9 g
same,APTT,[4],30.4 s
same,Bas,[4],0%
same,Eos,[4],0%
same,Fbg,[4],293.6 mg/dL
same,Hb,[4],13.2 g/dL
same,Ht,[4],39.9%
same,Lym,[4],66.4%
same,MCH,[4],20.3 pg
same,MCHC,[4],33%
same,MCV,[4],61.6 fL
same,Mono,[4],1.4%
same,Neu,[4],30.8%
same,PT,[4],18.9 s
same,Plat,[4],112.9 x10_4/uL
same,RBC,[4],647.6 x10_4/ul
same,Ret,[4],5.3%
same,WBC,[4],276.2 x10_2/uL
same,KIDNEY_L,[4],1 g
same,KIDNEY_R,[4],1 g
same,KIDNEY_TOTAL,[4],2 g
same,LIVER,[4],9.6 g
same,A/G,[4],1.3
same,ALP,[4],739.4 IU/L
same,ALT,[4],25.2 IU/L
same,AST,[4],65.8 IU/L
same,BUN,[4],11 mg/dL
same,CRE,[4],0.2 mg/dL
